Reference: patent US10251395B2, “Substituted furano-/thienocycloalkylamino-2-pyrimidine derivatives and use thereof for controlling undesired plant growth” (Bayer CropScience Aktiengesellschaft, priority 2015, dated 2019)

What was measured:
Assay type in all cases: in vivo
[1] = test system: Alopecurus myosuroides; experiment: Pre-emergence herbicidal effect; details: scored visually after 3 weeks
Text: (§1) Seeds of monocotyledonous and dicotyledonous weed plants and crop plants are laid out in wood-fiber pots in sandy loam and covered with soil. The compounds of the invention, formulated in the form of wettable powders (WP) or as emulsion concentrates (EC), are then applied to the surface of the covering soil as aqueous suspension or emulsion at a water application rate equating to 600 to 800 L/ha with addition of 0.2% wetting agent.
(§2) After the treatment, the pots are placed in a greenhouse and kept under good growth conditions for the trial plants. The damage to the test plants is scored visually after a test period of 3 weeks by comparison with untreated controls (herbicidal activity in percent (%): 100% activity=the plants have died, 0% activity=like control plants).
(§3) • ABUTH: Abutilon theophrasti ALOMY: Alopecurus myosuroides • AMARE: Amaranthus retroflexus AVEFA: Avena fatua • CYPES: Cyperus esculentus ECHCG: Echinochloa crus-galli • LOLMU: Lolium multiflorum MATIN: Matricaria inodora • PHBPU: Ipomoea purpurea POLCO: Polygonum convolvulus • SETVI: Setaria viridis STEME: Stellaria media • VERPE: Veronica persica VIOTR: Viola tricolor

[2] = test system: Matricaria inodora; experiment: Pre-emergence herbicidal effect; details: scored visually after 3 weeks
Text: as §1, §2, §3

[3] = test system: Echinochloa crus-galli; experiment: Pre-emergence herbicidal effect; details: scored visually after 3 weeks
Text: as §1, §2, §3

[4] = test system: Setaria viridis; experiment: Pre-emergence herbicidal effect; details: scored visually after 3 weeks
Text: as §1, §2, §3

[5] = test system: Stellaria media; experiment: Pre-emergence herbicidal effect; details: scored visually after 3 weeks
Text: as §1, §2, §3

[6] = test system: Viola tricolor; experiment: Pre-emergence herbicidal effect; details: scored visually after 3 weeks
Text: as §1, §2, §3

[7] = test system: Amaranthus retroflexus; experiment: Pre-emergence herbicidal effect; details: scored visually after 3 weeks
Text: as §1, §2, §3

[8] = test system: Veronica persica; experiment: Pre-emergence herbicidal effect; details: scored visually after 3 weeks
Text: as §1, §2, §3

[9] = test system: Echinochloa crus-galli; experiment: Post-emergence herbicidal effect; details: 320 g/ha, assessed visually after about 3 weeks vs untreated controls
Text: (§4) • ABUTH: Abutilon theophrasti ALOMY: Alopecurus myosuroides • AMARE: Amaranthus retroflexus AVEFA: Avena fatua • CYPES: Cyperus esculentus ECHCG: Echinochloa crus-galli • LOLMU: Lolium multiflorum MATIN: Matricaria inodora • PHBPU: Ipomoea purpurea POLCO: Polygonum convolvulus • SETVI: Setaria viridis STEME: Stellaria media • VERPE: Veronica persica VIOTR: Viola tricolor Seeds of monocotyledonous and dicotyledonous weed and crop plants are laid out in sandy loam in wood-fiber pots, covered with soil and cultivated in a greenhouse under good growth conditions. 2 to 3 weeks after sowing, the test plants are treated at the one-leaf stage. The compounds of the invention, formulated in the form of wettable powders (WP) or as emulsion concentrates (EC), are then sprayed onto the green parts of the plants as aqueous suspension or emulsion at a water application rate equating to 600 to 800 L/ha with addition of 0.2% wetting agent. After the test plants have been left to stand in the greenhouse under optimal growth conditions for about 3 weeks, the action of the preparations is assessed visually in comparison to untreated controls (herbicidal action in percent (%): 100% activity=the plants have died, 0% activity=like control plants).

[10] = test system: Setaria viridis; experiment: Post-emergence herbicidal effect; details: assessed visually after about 3 weeks vs untreated controls
Text: as §4

[11] = test system: Stellaria media; experiment: Post-emergence herbicidal effect; details: assessed visually after about 3 weeks vs untreated controls
Text: as §4

[12] = test system: Viola tricolor; experiment: Post-emergence herbicidal effect; details: assessed visually after about 3 weeks vs untreated controls
Text: as §4

[13] = test system: Amaranthus retroflexus; experiment: Post-emergence herbicidal effect; details: assessed visually after about 3 weeks vs untreated controls
Text: as §4

[14] = test system: Veronica persica; experiment: Post-emergence herbicidal effect; details: assessed visually after about 3 weeks vs untreated controls
Text: as §4

[15] = test system: Ipomoea purpurea; experiment: Post-emergence herbicidal effect; details: assessed visually after about 3 weeks vs untreated controls
Text: as §4

[16] = test system: Lolium multiflorum; experiment: Pre-emergence herbicidal effect; details: Dosage 320 g/ha, scored visually after 3 weeks
Text: as §1, §2, §3

[17] = test system: Polygonum convolvulus; experiment: Pre-emergence herbicidal effect; details: scored visually after 3 weeks
Text: as §1, §2, §3

[18] = test system: Abutilon theophrasti; experiment: Post-emergence herbicidal effect; details: assessed visually after about 3 weeks vs untreated controls
Text: as §4

SMILES	ALOMY pre-emergence efficacy (herbicidal activity) ([1]; Dosage 320 g/ha)	MATIN pre-emergence efficacy (herbicidal activity) ([2]; Dosage 80 g/ha)	MATIN pre-emergence efficacy (herbicidal activity) ([2]; Dosage 320 g/ha)	ECHCG pre-emergence efficacy (herbicidal activity) ([3]; Dosage 320 g/ha)	SETVI pre-emergence efficacy (herbicidal activity) ([4]; Dosage 320 g/ha)	STEME pre-emergence efficacy (herbicidal activity) ([5]; Dosage 320 g/ha)	VIOTR pre-emergence efficacy (herbicidal activity) ([6]; Dosage 80 g/ha)	VIOTR pre-emergence efficacy (herbicidal activity) ([6]; Dosage 320 g/ha)	AMARE pre-emergence efficacy (herbicidal activity) ([7]; Dosage 320 g/ha)	VERPE pre-emergence efficacy (herbicidal activity) ([8]; Dosage 80 g/ha)	VERPE pre-emergence efficacy (herbicidal activity) ([8]; Dosage 320 g/ha)	post-emergence efficacy SETVI ([10]; 320 g/ha)	post-emergence efficacy STEME ([11]; 320 g/ha)	post-emergence efficacy VIOTR ([12]; 80 g/ha)	post-emergence efficacy VIOTR ([12]; 320 g/ha)	post-emergence efficacy AMARE ([13]; 80 g/ha)	post-emergence efficacy VERPE ([14]; 320 g/ha)	LOLMU pre-emergence efficacy (herbicidal activity) [16]	STEME pre-emergence efficacy (herbicidal activity) ([5]; Dosage 80 g/ha)	POLCO pre-emergence efficacy (herbicidal activity) ([17]; Dosage 320 g/ha)	other results
Nc1nc(NC2CCc3cc(Cl)sc32)ncc1C(F)(F)F (racemic) [compound 48]	80%	80%	90%	100%	80%	100%	100%	100%	100%	100%	100%	90%	90%	80%	90%	80%	80%				ECHCG pre-emergence efficacy (herbicidal activity) ([3]; Dosage 80 g/ha): 100%; post-emergence efficacy ECHCG [9]: 100%; post-emergence efficacy SETVI ([10]; 80 g/ha): 80%; post-emergence efficacy AMARE ([13]; 320 g/ha): 90%; post-emergence efficacy PHBPU ([15]; 320 g/ha): 80%
CS(=O)(=O)c1cnc(NC2CCc3cc(Cl)sc32)nc1N (racemic) [compound 50]		90%	90%	100%	100%	100%	80%	100%	100%	100%	100%		100%	90%	100%	80%	90%	80%	100%	100%	ECHCG pre-emergence efficacy (herbicidal activity) ([3]; Dosage 80 g/ha): 90%; AMARE pre-emergence efficacy (herbicidal activity) ([7]; Dosage 80 g/ha): 100%; post-emergence efficacy AMARE ([13]; 320 g/ha): 90%; post-emergence efficacy VERPE ([14]; 80 g/ha): 80%
CC(=O)c1c(N)nc(NC2CCCc3sc(C)cc32)nc1C(F)(F)F (racemic) [compound 268]	90%		90%		90%	100%	80%	90%	100%	100%	100%	80%	100%	80%	80%		80%		90%		ALOMY pre-emergence efficacy (herbicidal activity) ([1]; Dosage 80 g/ha): 80%; SETVI pre-emergence efficacy (herbicidal activity) ([4]; Dosage 80 g/ha): 90%; AMARE pre-emergence efficacy (herbicidal activity) ([7]; Dosage 80 g/ha): 100%; post-emergence efficacy STEME ([11]; 80 g/ha): 100%; post-emergence efficacy VERPE ([14]; 80 g/ha): 80%
C=C(c1cnc(NC2CCCc3sc(C)cc32)nc1N)C(F)(F)F (racemic) [compound 275]	80%	90%	100%	100%	100%	100%	100%	100%	100%	100%	100%	80%	90%	70%	90%		90%	60%	100%	70%	ALOMY pre-emergence efficacy (herbicidal activity) ([1]; Dosage 80 g/ha): 80%; SETVI pre-emergence efficacy (herbicidal activity) ([4]; Dosage 80 g/ha): 90%; AMARE pre-emergence efficacy (herbicidal activity) ([7]; Dosage 80 g/ha): 70%; post-emergence efficacy SETVI ([10]; 80 g/ha): 70%; post-emergence efficacy STEME ([11]; 80 g/ha): 90%; post-emergence efficacy ABUTH ([18]; 80 g/ha): 80%; post-emergence efficacy ABUTH ([18]; 320 g/ha): 90%; post-emergence efficacy PHBPU ([15]; 320 g/ha): 70%
CCOC(=O)c1cnc(NC2CCCc3sc(C)cc32)nc1N (racemic) [compound 293]	70%	70%	100%	80%	100%	100%		100%	100%		100%		100%	70%	90%		90%	60%	100%		post-emergence efficacy STEME ([11]; 80 g/ha): 80%; post-emergence efficacy PHBPU ([15]; 80 g/ha): 80%; post-emergence efficacy PHBPU ([15]; 320 g/ha): 90%
Cc1cc2c(s1)CCCC2Nc1ncc(-c2cccc(C(F)(F)F)c2)c(N)n1 (racemic) [compound 294]	100%	90%	100%			100%	80%	90%		100%	100%					70%	90%	100%	100%	80%	ALOMY pre-emergence efficacy (herbicidal activity) ([1]; Dosage 80 g/ha): 70%; POLCO pre-emergence efficacy (herbicidal activity) ([17]; Dosage 80 g/ha): 70%; post-emergence efficacy AMARE ([13]; 320 g/ha): 70%; post-emergence efficacy ABUTH ([18]; 80 g/ha): 60%; post-emergence efficacy ABUTH ([18]; 320 g/ha): 70%
CN=C(C)c1cnc(NC2CCCc3sc(C)cc32)nc1N (centres unmarked) [compound 352]		90%	90%		100%	100%	80%	100%	100%	100%	100%	80%		80%	90%		100%	60%	100%	60%	POLCO pre-emergence efficacy (herbicidal activity) ([17]; Dosage 80 g/ha): 60%; post-emergence efficacy ABUTH ([18]; 80 g/ha): 80%; post-emergence efficacy ABUTH ([18]; 320 g/ha): 90%
